According to patent US20250107543A1, “TREATMENT OF AGRICULTURAL, FOOD AND RELATED PRODUCTS FOR ELIMINATING CONTAMINANTS AND ENCHANCING SHELF-LIFE” (priority 2022, published 2025):

Experiments:
aerobic micro-organisms = experiment: Aerobic/Total Plate Count of whole red chilli after pre-conditioning, trioxygen and heated air; settings: whole red chilli 12 kg's
Description: (§1) This experiment illustrates the treatment of aerobic micro-organisms, yeast, mould, coliform, E. coli, Salmonella and fat soluble metabolites contaminated whole red chilli.
(§2) The data presented in Table-2 illustrate the efficacy of the present disclosure in detoxifying contaminated whole red chillies. […].
(§3) The red chillies were exposed with Trioxygen for 2 minutes. The products were put under pressure of trioxygen gas for a span of 9 minutes to 26 minutes. Based on the commodity characteristics, the exposure of trioxygen gas was repeated 10 times. Trioxygen gas having a capacity 500 g/h was generated by the trioxygen generator (on site) of the system with a constant oxygen flow rate and delivered to the decontamination chamber through silicon tube. The whole red chillies were then treated to heated air.

[1] = C17H12O6 content of treated groundnuts; settings: groundnut
Description: The data presented in Table-3 illustrates the efficiency of the system of the present disclosure in detoxifying contaminated groundnuts.
Three sets of C17H12O6 contaminated 3 kg's, 60 kg's and 60 kg's of groundnuts were separately pre-conditioned and decontaminated in the system. In this case, groundnuts were pre-conditioned and exposed with trioxygen gas for up to 5 minutes. The products were put under pressure of trioxygen gas for a span of 9 minutes to 26 minutes. Based on the commodity characteristics, the exposure of trioxygen gas was repeated 15 times. Trioxygen gas having capacity 500 g/h was generated by the trioxygen generator of the system (on site) with a constant oxygen flow rate and delivered to the decontamination chamber through silicon tube. All 3 sets of products were heated and then analyzed for the presence of the contaminant and the results obtained are summarized in Table-3.

yeast, mould = experiment: Yeast & Mould Count of treated whole red chilli; settings: whole red chilli 12 kg's
Description: as §1, §2, §3

[2] = Pesticide residue in treated whole red chilli: Myclobutanil; settings: whole red chilli 12 kg's, Trial 1; HOCL and Trioxygen simultaneously
Text: (§4) This experiment illustrates the treatment of whole red chilli contaminated with pesticide residues.
(§5) The data presented in Table-6 illustrates the efficacy of the present disclosure in detoxifying contaminated whole red chillies. Sets of whole red chillies of 12 kg's contaminated with pesticides like Azoxystrobin, Imidacloprid Novaluron and Myclobutanil were used for the experiment. An inert gas (Nitrogen & Carbon-di-oxide) were introduced into the chamber filled with the material to drive out existing air and oxygen in the chamber. Pre-conditioning was carried out with HOCL and trioxygen being introduced simultaneously in decontamination chamber with faster decontamination process in the system with a shorter timeline protocol.
(§6) The red chillies were exposed with HOCL and Trioxygen simultaneously for 2 minutes. The products were put under pressure of 2 bar of trioxygen gas for a span of 9 minutes to 26 minutes. Based on the commodity characteristics, the exposure of trioxygen gas was repeated 10 times. Trioxygen gas having a capacity 500 g/h was generated by the trioxygen generator (on site) of the system with a constant oxygen flow rate and delivered to the decontamination chamber through silicon tube. The whole red chillies were then treated to heated air.

weevils and weevil eggs [3] = experiment: Shelf-Life Assessment of Groundnut; parameters: key to Visual observation: Powder at the bottom of bag / Weevils/Insects / Visual observation: Pin holes on grain: ✓ Not observed; x Observed; settings: for Visual observation: Pin holes on grain / Visual observation: Powder at the bottom of bag / Weevils/Insects: Treated sample
Description: (§7) The data presented in Table-5 illustrates the efficiency of the system of the present disclosure in pre-conditioning and deactivation of weevils and weevil eggs results in delayed occurrence of insect infestation in grains.
(§8) Grains such as Dry corn, Groundnut, Rice & Wheat were separately pre-conditioned and decontaminated in the system of the present disclosure. Grains were exposed to trioxygen gas for up to 5 minutes. The products were put under pressure of trioxygen gas for a span of 9 minutes to 26 minutes. Trioxygen gas having capacity 500 g/h was generated by the trioxygen generator of the system (on site) with a constant oxygen flow rate and delivered to the decontamination chamber through silicon tube. All products were treated with hot air and then analyzed for the presence of the weevils and weevil eggs the results obtained are summarized in Table-5.

weevils and weevil eggs [4] = experiment: Shelf-Life Assessment of Wheat; parameters: key to Visual observation: Pin holes on grain / Visual observation: Powder at the bottom of bag / Weevils/Insects: ✓ Not observed; x Observed; settings: for Visual observation: Pin holes on grain / Visual observation: Powder at the bottom of bag / Weevils/Insects: Treated sample
Description: as §7, §8

[5] = Pesticide residue in treated whole red chilli: Novaluron; settings: whole red chilli 12 kg's, Trial 1; HOCL and Trioxygen simultaneously
Text: as §4, §5, §6

E. coli = experiment: Detection of E. coli in treated whole red chilli; settings: whole red chilli 12 kg's, Trial 3
Description: as §1, §2, §3

O=[O+][O-] [Trioxygen]
Aerobic Plate Count, % Reduction (aerobic micro-organisms; Trial 1): 97% | Aerobic Plate Count, Results After Treatment (aerobic micro-organisms; Trial 1, before treatment 9.82 × 10^8 cfu/g): 3.0 × 10^7 cfu/g | Total Plate Count, % Reduction (aerobic micro-organisms; Trial 2): 80% | Total Plate Count, Results After Treatment (aerobic micro-organisms; Trial 2, before treatment 1.85 × 10^8 cfu/g): 3.72 × 10^7 cfu/g | Total Plate Count, % Reduction (aerobic micro-organisms; Trial 3): 97% | Total Plate Count, Results After Treatment (aerobic micro-organisms; Trial 3, before treatment 2.4 × 10^7 cfu/g): 8.36 × 10^5 cfu/g | C17H12O6, % Reduction ([1]; Sr. No. 1, 3 kg's): 100% | C17H12O6, % Reduction ([1]; Sr. No. 2, 60 kg's): 93% | C17H12O6, % Reduction ([1]; Sr. No. 3, 60 kg's): 64% | Yeast & Mould Count, % Reduction (yeast, mould; Trial 1): 73% | Yeast & Mould Count, Results After Treatment (yeast, mould; Trial 1, before treatment 1.57 × 10^7 cfu/g): 4.18 × 10^6 cfu/g | Yeast & Mold Count, % Reduction (yeast, mould; Trial 2): 83% | Yeast & Mold Count, Results After Treatment (yeast, mould; Trial 2, before treatment 1.7 × 10^7 cfu/g): 2.9 × 10^6 cfu/g | Yeast & Mold Count, % Reduction (yeast, mould; Trial 3): 99% | Yeast & Mold Count, Results After Treatment (yeast, mould; Trial 3, before treatment 3.36 × 10^7 cfu/g): 1.87 × 10^5 cfu/g | Myclobutanil, % Reduction [2]: 100% | No weevil infestation in system treated samples up to (weevils and weevil eggs [3]): up to 6 months | Treatment effective in delaying infestation up to (weevils and weevil eggs [3]): up to 6 months | Remarks on Weevils/Insects, Treated (weevils and weevil eggs [3]; Post 1.5 Months): No weevils/insects | Remarks on Weevils/Insects, Treated (weevils and weevil eggs [3]; Post 2 Months): No weevils/insects | Remarks on Weevils/Insects, Treated (weevils and weevil eggs [3]; Post 3 Months): No weevils/insects | Remarks on Weevils/Insects, Treated (weevils and weevil eggs [3]; Post 5 Months): No weevils/insects | Remarks on Weevils/Insects, Treated (weevils and weevil eggs [3]; Post 6 Months): No weevils/insects | Remarks on Weevils/Insects, Treated: insect observed alive, buff/cream, 5 mm long (weevils and weevil eggs [3]; Post 7 Months): 1 insect observed - | Visual observation: Pin holes on grain (weevils and weevil eggs [3]; 1.5 Months): ✓ | Visual observation: Powder at the bottom of bag (weevils and weevil eggs [3]; 1.5 Months): ✓ | Weevils/Insects (weevils and weevil eggs [3]; 1.5 Months): ✓ | Visual observation: Pin holes on grain (weevils and weevil eggs [3]; 2 Months): ✓ | Visual observation: Powder at the bottom of bag (weevils and weevil eggs [3]; 2 Months): ✓ | Weevils/Insects (weevils and weevil eggs [3]; 2 Months): ✓ | Visual observation: Pin holes on grain (weevils and weevil eggs [3]; 3 Months): ✓ | Visual observation: Powder at the bottom of bag (weevils and weevil eggs [3]; 3 Months): ✓ | Weevils/Insects (weevils and weevil eggs [3]; 3 Months): ✓ | Visual observation: Pin holes on grain (weevils and weevil eggs [3]; 5 Months): ✓ | Visual observation: Powder at the bottom of bag (weevils and weevil eggs [3]; 5 Months): ✓ | Weevils/Insects (weevils and weevil eggs [3]; 5 Months): ✓ | Visual observation: Pin holes on grain (weevils and weevil eggs [3]; 6 Months): ✓ | Visual observation: Powder at the bottom of bag (weevils and weevil eggs [3]; 6 Months): ✓ | Weevils/Insects (weevils and weevil eggs [3]; 6 Months): ✓ | Visual observation: Pin holes on grain (weevils and weevil eggs [3]; 7 Months): ✓ | Visual observation: Powder at the bottom of bag (weevils and weevil eggs [3]; 7 Months): ✓ | Weevils/Insects (weevils and weevil eggs [3]; 7 Months): x | Number of weevils in treated sample, times less than that in control sample (weevils and weevil eggs [3]; at month 7): 3 times | No weevil infestation in system treated samples up to (weevils and weevil eggs [4]): up to 3 months | Treatment effective in delaying infestation up to (weevils and weevil eggs [4]): up to 6 months | Remarks on Weevils/Insects, Treated (weevils and weevil eggs [4]; Post 1.5 Months): No weevils/insects | Remarks on Weevils/Insects, Treated (weevils and weevil eggs [4]; Post 2 Months): No weevils/insects | Remarks on Weevils/Insects, Treated (weevils and weevil eggs [4]; Post 3 Months): No weevils/insects | Remarks on Weevils/Insects, Treated: cream/buff colour insect (3 mm) observed alive (weevils and weevil eggs [4]; Post 5 Months): 2 cream/buff colour | Remarks on Weevils/Insects, Treated: cream/buff colour insect (3 mm) observed alive (weevils and weevil eggs [4]; Post 6 Months): 3 cream/buff colour | Remarks on Weevils/Insects, Treated: cream/buff colour insect (3 mm) observed alive (weevils and weevil eggs [4]; Post 7 Months): 3 cream/buff colour | Visual observation: Pin holes on grain (weevils and weevil eggs [4]; 1.5 Months): ✓ | Visual observation: Powder at the bottom of bag (weevils and weevil eggs [4]; 1.5 Months): ✓ | Weevils/Insects (weevils and weevil eggs [4]; 1.5 Months): ✓ | Visual observation: Pin holes on grain (weevils and weevil eggs [4]; 2 Months): ✓ | Visual observation: Powder at the bottom of bag (weevils and weevil eggs [4]; 2 Months): ✓ | Weevils/Insects (weevils and weevil eggs [4]; 2 Months): ✓ | Visual observation: Pin holes on grain (weevils and weevil eggs [4]; 3 Months): ✓ | Visual observation: Powder at the bottom of bag (weevils and weevil eggs [4]; 3 Months): ✓ | Weevils/Insects (weevils and weevil eggs [4]; 3 Months): ✓ | Visual observation: Pin holes on grain (weevils and weevil eggs [4]; 5 Months): ✓ | Visual observation: Powder at the bottom of bag (weevils and weevil eggs [4]; 5 Months): ✓ | Weevils/Insects (weevils and weevil eggs [4]; 5 Months): x | Visual observation: Pin holes on grain (weevils and weevil eggs [4]; 6 Months): ✓ | Visual observation: Powder at the bottom of bag (weevils and weevil eggs [4]; 6 Months): ✓ | Weevils/Insects (weevils and weevil eggs [4]; 6 Months): x | Visual observation: Pin holes on grain (weevils and weevil eggs [4]; 7 Months): ✓ | Visual observation: Powder at the bottom of bag (weevils and weevil eggs [4]; 7 Months): ✓ | Weevils/Insects (weevils and weevil eggs [4]; 7 Months): x | Number of weevils in treated sample compared to those in control, times less (weevils and weevil eggs [4]; at month 5): 4 times | Novaluron, % Reduction [5]: 100% | Detection of E. coli, % Reduction (E. coli): 100% | Detection of E. coli, Results After Treatment (E. coli; before treatment Present/25 g): Absent/25 g
